Source: patent US20070224645A1, “Novel cell-based phosphodiesterase assays” (priority 2006, published 2007)
“Also recorded” adds a separate entry of the source.

Test system: PDE IV
Experiment: Cell-based PDE assay in ACTOne-IRES-A2b#2 cell line with ACTOne Membrane Potential dye, no external cAMP stimulation
Conditions: ACTOne-IRES-A2b#2 cell line (HEK293-CNG overexpressing human adenosine A2b receptor); readings before and 30 minutes after compound addition
Experimental: Before the assay, all cells are harvested when they reach 80-90% confluence or less, and they should not be overgrown. Culture medium of the transfected cells was removed and replaced with a volume of Dulbecco's Phosphate Buffers Saline without calcium and magnesium (DPBS) to adequately cover and wash the cells. The DPBS was removed and a sufficient volume of 1× trypsin-EDTA was added to just cover the cells (i.e. 1 ml for a 10 cm dish, 2 ml for a T75 flask, and 5 ml for a T150 flask). The plate was agitated to make sure the cells were equally covered with the solution. The cells were trypsinized at room temperature for about 5 min. After 5 min, the cells were examined to ensure that they were detached from the dish or flask. Gentle tapping of the dish/flask may aid in the process. Sufficient serum-containing medium were added to an appropriate volume and the medium was pipetted up and down through a serological pipette for 4 times to obtain a single cell suspension. A portion of the cells were counted with a hemocytometer. Cells are diluted in their appropriate medium at 7×10^5 cells/ml. 100 μl/well of cell suspension is added to 96-well plates or 20 μl/well is added to 384-well plates 16-24 hours before use. For cells with HEK293 background, poly-D-lysine-coated plates are recommended. Optimal assay conditions using standard fluorescence plate readers require a confluent monolayer of cells prior to the assay. The number of cells used per well will depend upon a number of conditions including the cell line and the instrument being used to make the reading. Cell plates are removed from the incubator after overnight incubation and examined under microscope. A confluent lawn of consistently spread cells is observed. An equal volume of IX Membrane Potential Dye Solution (BD Biosciences, Rockville, Md.) is then added to each well (e.g. 100 μl to 100 μl culture medium/well for 96-well plates, or 20 μl to 20 μl culture medium/well for 384-well plates). […] The cell plates are further incubated for 2 hrs at room temperature in the dark. Membrane potential assays are performed as described in the manual for ACTOne Membrane Potential Dye Kit (BD Biosciences, Rockville, Md.). Test compounds can be added on-line (some fluorescence plate readers also have fluid addition module, and therefore compound addition and fluorescence intensity reading can happen simultaneously. i.e. FLIPR and FlexStation) or off-line (other liquid handling equipments are used for compound addition). Test compounds in 1×DPBS was added to the cell plates at 50 μl/well for 96-well plates (250 μl total well volume after addition) or 10 μl/well for 384-well plates (50 μl total well volume after addition). Cell plates are loaded into a FLIPR, FLEXstation, or other fluorescence microplate reader to read fluorescence intensity before and after compound addition. The settings on FLIPR are described in the manuals from the manufacturer. For FLEXstation and other fluorescence microplate readers, wavelengths close to the maxima of absorption and emission of the dye are used: for example, 530 nm excitation, 550 auto cut-off, and 565 nm emission. […] Fluorescence intensity counts obtained before and 30 minutes after compound addition were used for data analysis. […] It has been reported that PDE4 is a dominant isozyme in HEK293 cells. In order to analyze the specificity of the PDE assay, different PDE inhibitors (Ro20-1724, Rolipram, Etazolate (PDE IV inhibitors); 8-methoxymethyl-3-isobuty-1-m (PDE I inhibitor); Zaprinast (cGMP specific PDE inhibitor); Quazinon (PDE III inhibitor); IBMX (pan PDE inhibitor)) were purchased from Sigma. They were diluted at different concentrations in 1×DPBS and the assays were performed the same as above using the ACTOne-IRES-A2b#2 cell line. Briefly, the cells were plated on 384-well PDL coated plate. The density of the cells was 14,000 cells per well. The cells were allowed to attach and grow overnight. […]

Question: For `COCc1nc2c([nH]1)c(=O)n(C)c(=O)n2CC(C)C` [8-methoxymethyl-3-isobuty-1-m, 8-Methoxymethyl-3-isobutyl-1-methylxanthine], which “detection of PDE inhibitor activity (dose response, fluorescence intensity)” value (“detection of PDE inhibitor activity” for short) is on record?
Answer: The value was “negative signals”.

Question: `CCOC(=O)c1cnc2c(cnn2CC)c1NN=C(C)C.Cl` [Etazolate, 1-ethyl-4-[(1-methylethylidene)hydrazino]1H-pyrazol-o[3,4-b]pyridine-5-carboxylic acid ethyl ester hydrochloride] was tested. Which “detection of PDE inhibitor activity” value did it give?
Answer: Its value is “detected”.

Question: With `CC(C)Cn1c(=O)n(C)c(=O)c2[nH]cnc21` [IBMX, 3-Isobutyl-1-methylxanthine] as the compound, how does the “detection of PDE inhibitor activity” value read?
Answer: Its value is “can not be detected; also recorded: negative signals”.

Question: For `C[C@@H]1C(=O)NC2=Nc3cccc(Cl)c3CN21` [Quazinon], which “detection of PDE inhibitor activity” value is on record?
Answer: Its value is “negative signals”.

Question: How did the “detection of PDE inhibitor activity” value turn out when `CCCCOc1cc(CC2CNC(=O)N2)ccc1OC` (stereo not shown) [Ro20-1724] was run?
Answer: Its value is “detected”.

Question: For `COc1ccc(C2CNC(=O)C2)cc1OC1CCCC1` (stereo not shown) [Rolipram, 4-[3-(cyclopentyloxy)-4-methoxyphenyl]-2-pyrrolidinone], which “detection of PDE inhibitor activity” value is on record?
Answer: The value was “detected”.

Question: `CCCOc1ccccc1-c1nc2nn[nH]c2c(=O)[nH]1` [Zaprinast] was tested. Which “detection of PDE inhibitor activity” value did it give?
Answer: The value was “negative signals”.
